Values belong to the compound of their own block, whether it stands above or below them.
How the values were obtained:
Prohibitin (Phb) = assay: Microarray gene expression, mouse intestine; type: in vivo, mice; settings: vs Se-deficient diet, p<0.05
From the text: (§1) Animal Care. Male C57BL/6J mice were housed singly and started on the experimental diets described below immediately after weaning (21 days of age). The mice were maintained in the Shared Aging Rodent Facility at the William S. Middleton Memorial Veterans Administration Medical Center (Madison, Wis.). Temperature and humidity were maintained at constant levels. Room light was controlled to provide 12-hr cycles of light and dark.
(§2) Experimental diets were created by Harlan Teklad (Madison, Wis.). Selenium content of the diets was determined by Covance Inc. (Madison, Wis.). Five (5) animals were included in each of the following treatment groups: a diet deficient in selenium (SD); a diet supplemented with selenomethionine (SM, obtained from Sigma, St. Louis, Mo.) such that the final selenium content of the diet was one (1) part per million; a diet supplemented with sodium selenite (SS, Sigma) such that the final concentration of selenium in this diet was one (1) part per million; or a diet supplemented with the yeast selenium SEL-PLEX (SP, Alltech, Lexington, Ky.), such that the final concentration of selenium in this diet was one (1) part per million. SEL-PLEX. Mice were provided with water and their respective diet ad libitum for 100 days. Diets were stored at the dark at 4° C. and fresh diet was added to feeder twice weekly.
(§3) Tissue sample preparation and microarray analysis. Mice were killed at 100 days of age by cervical dislocation. For intestinal expression studies, the intestine was flushed twice with saline solution and small intestine was measured and divided in three equal segments. A 3-cm region of the middle segment of the small intestine corresponding to the jejunum (˜300 mg of tissue) was cut and rinsed again with physiological saline to completely remove contents, flash frozen in liquid nitrogen and stored at −80° C. For brain (e.g., cerebral cortex) studies, the cerebral cortex was separated from the surrounding brain tissue and was flash frozen in liquid nitrogen and stored at −80° C.
(§4) Total RNA was isolated from using the guanidinium isothiocyanate method of TRIZOL (Life Technologies, Grand Island, N.Y.) and individual samples were used for gene expression profiles. Total RNA was cleaned up by RNeasy Mini kit (Qiagen, Valencia, Calif.). Target RNA was prepared by converting […] total RNA into double-strand cDNA using GeneChip Expression 3′-Amplification Reagents One-Cycle cDNA Synthesis Kit (Affymetrix, Santa Clara, Calif.) with a T7-(dT)24 primer incorporating a T7 RNA polymerase promoter. After cleaning up double-strand cDNA using Genechip Sample Cleanup Module (Affymetrix, Santa Clara, Calif.), biotin-labeled cRNA was synthesized from double-strand cDNA using GeneChip Expression 3′-Amplification Reagents for IVT Labeling (Affymetrix, Santa Clara, Calif.). The biotin-labeled cRNA was cleaned up using Genechip Sample Cleanup Module and was fragmented by heating (35 min at 94° C.).
(§5) Fifteen (15) μg of cRNA fragments were hybridized (16 h at 45° C.) to Mouse Genome 430 2.0 Array (Affymetrix, Santa Clara, Calif.) using GeneChip Hybridization Oven 640. After hybridization, the gene chips were automatically washed and stained with streptavidin-phycoerythrin biotinylated anti-streptavidin using Affymetrix GeneChip Fluidics Station 450. The DNA chips were scanned with Affymetrix GeneChip Scanner 3000 (Affymetrix, Santa Clara, Calif.) to detect the cell signal intensities by laser. All calculations were performed with Affymetrix GeneChip Operating Software (GCOS) version 1.3 after scanning
(§6) • 1. The spreadsheet containing probe set identifiers and signal intensity values was opened in Microsoft Excel (version 11.1.1 for the Macintosh OS-X operating system) and summary statistics were generated (mean signal intensity for each treatment group, standard error of the mean). Two-tailed t-tests (equal variance) were performed for the following treatment groups: SM vs. SD, SS vs. SD, and SP vs. SD. […]

[1] = tested on: transforming growth factor beta 2 (TGF-β2); assay: Microarray gene expression, mouse intestine; type: in vivo, mice; settings: vs controls
From the text: as §1, §2, §3, §4, §5, §6

selenoprotein N1 (Sepn1) = assay: Microarray gene expression, mouse intestine; type: in vivo, mice; settings: 1 ppm Se diet 100 days vs Se-deficient diet, p<0.02
From the text: as §1, §2, §3, §4, §5, §6

Neurogenin 3 (Neurog3) = assay: Microarray gene expression, mouse intestine; type: in vivo, mice; settings: vs Se-deficient diet
From the text: as §1, §2, §3, §4, §5, §6

[2] = tested on: Growth arrest and DNA-damage-inducible 45 gamma (Gadd45g); assay: Microarray gene expression, mouse intestine; type: in vivo, mice; settings: vs Se-deficient diet, minus = down
From the text: as §1, §2, §3, §4, §5, §6

Gadd45g1p = assay: Microarray gene expression, mouse intestine; type: in vivo, mice; settings: p<0.05
From the text: as §1, §2, §3, §4, §5, §6

SelR (Selenoprotein X1) = assay: Microarray gene expression, mouse intestine; type: in vivo, mice; settings: 1 ppm Se diet 100 days vs Se-deficient diet
From the text: as §1, §2, §3, §4, §5, §6

[3] = tested on: type II iodothyronine deiodinase (Dio2); assay: Microarray gene expression, mouse intestine; type: in vivo, mice; settings: 1 ppm Se diet 100 days vs Se-deficient diet
From the text: as §1, §2, §3, §4, §5, §6

Glyoxalase 1 (Glo1) = assay: Microarray gene expression, mouse intestine; type: in vivo, mice; settings: 1 ppm Se diet 100 days vs Se-deficient diet, p<0.01
From the text: as §1, §2, §3, §4, §5, §6

Selenoprotein W (SelW) = assay: Microarray gene expression, mouse intestine; type: in vivo, mice; settings: 1 ppm Se diet 100 days vs Se-deficient diet
From the text: as §1, §2, §3, §4, §5, §6

[4] = tested on: LIM homeobox protein 8 gene (Lhx8); assay: Microarray gene expression, mouse intestine; type: in vivo, mice; settings: vs Se-deficient subjects, p<0.01
From the text: as §1, §2, §3, §4, §5, §6

[5] = tested on: sprouty homolog 2 gene (Spry2); assay: Microarray gene expression, mouse intestine; type: in vivo, mice; settings: relative to Se-deficient controls
From the text: as §1, §2, §3, §4, §5, §6

[6] = tested on: Growth arrest and DNA-damage-inducible 45 beta (Gadd45b); assay: Microarray gene expression, mouse intestine; type: in vivo, mice; settings: intestinal tissue; vs Se-deficient; minus = down
From the text: as §1, §2, §3, §4, §5, §6

[7] = tested on: Type 1 iodothyronine deiodinase; assay: Microarray gene expression, mouse intestine; type: in vivo, mice; settings: 1 ppm Se diet 100 days vs Se-deficient diet
From the text: as §1, §2, §3, §4, §5, §6

[8] = tested on: complement component genes; assay: Microarray gene expression, mouse cerebral cortex (summary of Table 6); type: in vivo, mice; settings: p<0.01
From the text: as §1
as §2, with “Mice were provided with water and their respective diet ad libitum for 100 days. Diets were stored at the dark at 4° C. and fresh diet was added to feeder twice weekly.” left out
(§7) Tissue sample preparation and microarray analysis. […] For intestinal expression studies, the intestine was flushed twice with saline solution and small intestine was measured and divided in three equal segments. […]

GST genes = assay: Microarray gene expression, mouse intestine (summary of Table 3); type: in vivo, mice; settings: vs Se-deficient diet
From the text: as §1
as §2, with “Mice were provided with water and their respective diet ad libitum for 100 days. Diets were stored at the dark at 4° C. and fresh diet was added to feeder twice weekly.” left out
as §7

[9] = tested on: cyclin-dependent kinase 5 (Cdk-5); assay: Microarray gene expression, tau kinases, brain; type: in vivo, mice; settings: vs non-selenium supplemented diet, minus = down, * significant
From the text: as §1, §2, §3
(§8) Total RNA was isolated from using the guanidinium isothiocyanate method of TRIZOL (Life Technologies, Grand Island, N.Y.) and individual samples were used for gene expression profiles. Total RNA was cleaned up by RNeasy Mini kit (Qiagen, Valencia, Calif.). Target RNA was prepared by converting […] total RNA into double-strand cDNA using GeneChip Expression 3′-Amplification Reagents One-Cycle cDNA Synthesis Kit (Affymetrix, Santa Clara, Calif.) with a T7-(dT)24 primer incorporating a T7 RNA polymerase promoter. […]

[10] = tested on: glycogen synthase kinase-3-beta (GSK-3β); assay: Microarray gene expression, tau kinases, brain; type: in vivo, mice; settings: vs non-selenium supplemented diet, minus = down, * significant
From the text: as §1, §2, §3, §8

Gadd45b [11] = assay: Microarray gene expression, mouse cerebral cortex; type: in vivo, mice; settings: minus = down; for Fold change Gadd45b gene expression, ctx (Table 14): cortex tissue, vs Se-deficient
From the text: as §1, §2, §3, §4, §5, §6

CORS-26 = assay: Microarray gene expression, mouse cerebral cortex; type: in vivo, mice; settings: Example 10 (brain); vs Se-deficient diet
From the text: as §1, §2, §3, §4, §5, §6

Gadd45b [12] = assay: Gene expression, liver tissue; type: in vivo, mice; settings: vs Se-deficient, minus = down
From the text: as §1
as §2, with “Diets were stored at the dark at 4° C. and fresh diet was added to feeder twice weekly.” left out
(§9) • 1. […] Additionally, a “signal intensity score” was calculated for each probe set as the sum of the signal intensities for all chips (N=20). • 2. […]

Gadd45b [13] = assay: Gene expression, skeletal muscle tissue; type: in vivo, mice; settings: vs Se-deficient, minus = down
From the text: as §1
as §2, with “Diets were stored at the dark at 4° C. and fresh diet was added to feeder twice weekly.” left out
as §9

Thioredoxin Reductase 1 = assay: Microarray gene expression, mouse intestine; type: in vivo, mice; settings: 1 ppm Se diet 100 days vs Se-deficient diet, all p <0.01
From the text: as §1, §2, §3, §4, §5, §6

SOD1 = assay: Microarray gene expression, mouse intestine; type: in vivo, mice; settings: 1 ppm Se diet 100 days vs Se-deficient diet
From the text: as §1, §2, §3, §4, §5, §6

[14] = tested on: Cu chaperone for SOD (CCS); assay: Microarray gene expression, mouse intestine; type: in vivo, mice; settings: 1 ppm Se diet 100 days vs Se-deficient diet
From the text: as §1, §2, §3, §4, §5, §6

calpain-5 = assay: Expression level of calpain genes after selenium administration; type: in vivo; settings: tissue not stated; minus = down; asterisk not explained
Method: Compositions and methods of the present invention were analyzed to determine if they were capable of altering the expression levels of calpain genes. Compositions comprising various forms of selenium (e.g., SeM, Sod-sel, and SEL-PLEX) were administered to subjects and the expression levels of calpain genes monitored. The expression level of calpain-5 was altered by treatment in the following ways: free selenomethionine (SM)+1.32*, Sod-sel −1.07, SEL-PLEX −1.44*.

[15] = tested on: Complement component 1, q subcomponent, beta polypeptide, C1qbp; assay: Microarray gene expression, mouse cerebral cortex; type: in vivo, mice; settings: vs Se-deficient diet, minus = down, * = significant p<0.01
From the text: as §1, §2, §3, §4, §5, §6

[16] = tested on: Complement component 1, q subcomponent binding protein, C1qbp; assay: Microarray gene expression, mouse cerebral cortex; type: in vivo, mice; settings: vs Se-deficient diet, minus = down, * = significant p<0.01
From the text: as §1, §2, §3, §4, §5, §6

[17] = tested on: Gadd45g1p (Growth arrest and DNA-damage inducible 45 gamma interacting protein); assay: Microarray gene expression, mouse cerebral cortex; type: in vivo, mice; settings: brain; minus = down; * significant relative to Se-deficient animals
From the text: as §1, §2, §3, §4, §5, §6

fold down-regulation of Dio2 expression [3]: no ability to alter
fold reduction of Glo1 expression (Glyoxalase 1 (Glo1)): not significantly affected
Structure (SMILES): C[Se]CC[C@H](N)C(=O)O [SeM, selenomethionine]
fold upregulation of Prohibitin (Phb) expression (Prohibitin (Phb)): 1.6 fold
fold upregulation of TGF-β2 expression [1]: not altered
fold increase of selenoprotein N1 (Sepn1) gene expression (selenoprotein N1 (Sepn1)): not significantly affected
fold upregulation of Neurog3 expression (Neurogenin 3 (Neurog3)): no significant alteration
FC Gadd45g expression (Table 2) [2]: −1.5 (p < 0.05) fold
expression of Gadd45g1p in intestinal tissue (Gadd45g1p): decreased expression
fold upregulation of SelR gene (SelR (Selenoprotein X1)): not significantly affected
fold upregulation of Selenoprotein W (SelW) expression (Selenoprotein W (SelW)): not significantly altered
fold upregulation of Lhx8 expression [4]: not significantly different
fold reduction in Spry2 gene expression [5]: no alteration
Fold change Gadd45b gene expression, int (Table 14) [6]: −1.07 fold
fold increase in expression of Type 1 iodothyronine deiodinase [7]: 2.0 fold
down-regulation of complement component genes (summary in words) [8]: did not provide a statistically significant alteration
alteration of expression pattern of GST genes (summary in words) (GST genes): no alteration
FC CdK5 gene expression ([9]; listed as SM): −1.00 fold
FC GsKβ3 (GSK-3β) gene expression ([10]; listed as SM): −1.10 fold
Fold change Gadd45b gene expression, ctx (Table 14) (Gadd45b [11]; listed as Selenomethionine): −1.26 fold
Fold change Gadd45b gene expression, ctx (Table 14) (Gadd45b [11]; listed as selenomethionine): significant reduction
fold reduction in expression of CORS-26 (CORS-26): no alteration
Fold change Gadd45b gene expression, liv (Table 14) (Gadd45b [12]): 1.24 fold
Fold change Gadd45b gene expression, skm (Table 14) (Gadd45b [13]): 1.02 fold

Structure (SMILES): O=[Se](O)O [Sod-sel, sodium selenite]
fold increase in expression of the Thioredoxin Reductase 1 gene (Thioredoxin Reductase 1): 1.7 fold
FC Gadd45g expression (Table 2) [2]: −2.0 (p < 0.01) fold
fold upregulation of SelR gene (SelR (Selenoprotein X1)): 1.3 fold
fold upregulation of Selenoprotein W (SelW) expression (Selenoprotein W (SelW)): 5.1 fold
fold enhanced expression of SOD1 (SOD1): 1.92 fold
fold enhancement in expression of Cu chaperone for SOD (CCS) [14]: 1.28 fold
Fold change Gadd45b gene expression, int (Table 14) [6]: 1.08 fold
fold increase in expression of Type 1 iodothyronine deiodinase [7]: 2.8 fold
FC CdK5 gene expression ([9]; listed as SS): −1.13 fold
FC GsKβ3 (GSK-3β) gene expression ([10]; listed as SS): −1.63* fold
expression level of calpain-5 altered by treatment (calpain-5): −1.07
FC C1q beta polypeptide (printed C1qbp) expression [15]: −1.35 fold
FC C1qbp (C1q binding protein) expression [16]: 1.11 fold
FC Gadd45b expression (Table 11) (Gadd45b [11]; brain, * significant relative to Se-deficient animals): −1.39* fold
Fold change Gadd45b gene expression, ctx (Table 14) (Gadd45b [11]): −1.33 fold
FC Gadd45g1p expression (Table 11) [17]: −1.12 fold
Fold change Gadd45b gene expression, liv (Table 14) (Gadd45b [12]): 1.25 fold
Fold change Gadd45b gene expression, skm (Table 14) (Gadd45b [13]): −2.42 fold
